Laboratory results as given in the NIST ThermoML archive (doi:10.1021/je900550v).
Numbers after ± are expanded uncertainties.

Conditions: 101.33 kPa, Liquid; for speed of sound: Sing-around technique in a fixed-path interferometer; for mass density: Vibrating tube method

CC(=O)[O-].C[NH2+]CCO [N-methyl-2-hydroxyethylammonium acetate]
Conditions | mass density [kg/m3] | speed of sound [m/s] | viscosity [mPa·s]
308.15 K | 1094.83 ± 2.2 | 1769.3 ± 2.2 | –
308.4 K | 1094.68 ± 2.2 | 1768.7 ± 2.2 | –
308.65 K | 1094.52 ± 2.2 | 1768 ± 2.2 | –
308.9 K | 1094.37 ± 2.2 | 1767.4 ± 2.2 | –
309.15 K | 1094.22 ± 2.2 | 1766.8 ± 2.2 | –
309.4 K | 1094.07 ± 2.2 | 1766.1 ± 2.2 | –
309.65 K | 1093.92 ± 2.2 | 1765.5 ± 2.2 | –
309.9 K | 1093.77 ± 2.2 | 1764.8 ± 2.2 | –
310.15 K | 1093.62 ± 2.2 | 1764.2 ± 2.2 | –
310.4 K | 1093.47 ± 2.2 | 1763.6 ± 2.2 | –
310.65 K | 1093.31 ± 2.2 | 1762.9 ± 2.2 | –
310.91 K | 1093.16 ± 2.2 | 1762.3 ± 2.2 | –
311.16 K | 1093.01 ± 2.2 | 1761.7 ± 2.2 | –
311.4 K | 1092.85 ± 2.2 | 1761 ± 2.2 | –
311.65 K | 1092.7 ± 2.2 | 1760.4 ± 2.2 | –
311.91 K | 1092.55 ± 2.2 | 1759.7 ± 2.2 | –
312.16 K | 1092.4 ± 2.2 | 1759.1 ± 2.2 | –
312.41 K | 1092.24 ± 2.2 | 1758.5 ± 2.2 | –
312.66 K | 1092.09 ± 2.2 | 1757.8 ± 2.2 | –
312.91 K | 1091.94 ± 2.2 | 1757.2 ± 2.2 | –
313.15 K | – | – | 46.16 ± 1.3
313.16 K | 1091.78 ± 2.2 | 1756.5 ± 2.2 | –
313.4 K | 1091.63 ± 2.2 | 1755.9 ± 2.2 | –
313.66 K | 1091.48 ± 2.2 | 1755.2 ± 2.2 | –
313.9 K | 1091.32 ± 2.2 | 1754.6 ± 2.2 | –
314.15 K | 1091.17 ± 2.2 | 1753.9 ± 2.2 | –
314.4 K | 1091.02 ± 2.2 | 1753.3 ± 2.2 | –
314.65 K | 1090.87 ± 2.2 | 1752.6 ± 2.2 | –
314.9 K | 1090.71 ± 2.2 | 1752 ± 2.2 | –
315.15 K | 1090.56 ± 2.2 | 1751.3 ± 2.2 | –
315.41 K | 1090.41 ± 2.2 | 1750.7 ± 2.2 | –
315.65 K | 1090.26 ± 2.2 | 1750 ± 2.2 | –
315.91 K | 1090.1 ± 2.2 | 1749.4 ± 2.2 | –
316.16 K | 1089.95 ± 2.2 | 1748.7 ± 2.2 | –
316.41 K | 1089.79 ± 2.2 | 1748.1 ± 2.2 | –
316.66 K | 1089.64 ± 2.2 | 1747.4 ± 2.2 | –
316.91 K | 1089.49 ± 2.2 | 1746.8 ± 2.2 | –
317.16 K | 1089.33 ± 2.2 | 1746.1 ± 2.2 | –
317.4 K | 1089.18 ± 2.2 | 1745.5 ± 2.2 | –
317.66 K | 1089.02 ± 2.2 | 1744.8 ± 2.2 | –
317.91 K | 1088.87 ± 2.2 | 1744.2 ± 2.2 | –
318.15 K | – | – | 37.28 ± 1.1
318.16 K | 1088.72 ± 2.2 | 1743.5 ± 2.2 | –
318.41 K | 1088.56 ± 2.2 | 1742.8 ± 2.2 | –
318.65 K | 1088.41 ± 2.2 | 1742.2 ± 2.2 | –
318.9 K | 1088.26 ± 2.2 | 1741.5 ± 2.2 | –
319.16 K | 1088.1 ± 2.2 | 1740.9 ± 2.2 | –
319.41 K | 1087.94 ± 2.2 | 1740.2 ± 2.2 | –
319.65 K | 1087.79 ± 2.2 | 1739.6 ± 2.2 | –
319.91 K | 1087.64 ± 2.2 | 1738.9 ± 2.2 | –
320.16 K | 1087.48 ± 2.2 | 1738.2 ± 2.2 | –
320.41 K | 1087.33 ± 2.2 | 1737.6 ± 2.2 | –
320.65 K | 1087.17 ± 2.2 | 1736.9 ± 2.2 | –
320.91 K | 1087.02 ± 2.2 | 1736.3 ± 2.2 | –
321.15 K | 1086.86 ± 2.2 | 1735.6 ± 2.2 | –
321.41 K | 1086.71 ± 2.2 | 1735 ± 2.2 | –
321.66 K | 1086.55 ± 2.2 | 1734.3 ± 2.2 | –
321.9 K | 1086.4 ± 2.2 | 1733.6 ± 2.2 | –
322.15 K | 1086.24 ± 2.2 | 1733 ± 2.2 | –
322.41 K | 1086.08 ± 2.2 | 1732.3 ± 2.2 | –
322.65 K | 1085.93 ± 2.2 | 1731.7 ± 2.2 | –
322.91 K | 1085.77 ± 2.2 | 1731 ± 2.2 | –
323.15 K | – | – | 29.06 ± 0.85
323.16 K | 1085.62 ± 2.2 | 1730.3 ± 2.2 | –
323.41 K | 1085.46 ± 2.2 | 1729.7 ± 2.2 | –
323.65 K | 1085.31 ± 2.2 | 1729 ± 2.2 | –
323.91 K | 1085.15 ± 2.2 | 1728.3 ± 2.2 | –
324.16 K | 1085 ± 2.2 | 1727.7 ± 2.2 | –
324.41 K | 1084.84 ± 2.2 | 1727 ± 2.2 | –
324.65 K | 1084.68 ± 2.2 | 1726.4 ± 2.2 | –
324.9 K | 1084.53 ± 2.2 | 1725.7 ± 2.2 | –
325.16 K | 1084.37 ± 2.2 | 1725 ± 2.2 | –
325.4 K | 1084.22 ± 2.2 | 1724.4 ± 2.2 | –
325.66 K | 1084.06 ± 2.2 | 1723.7 ± 2.2 | –
325.9 K | 1083.9 ± 2.2 | 1723.1 ± 2.2 | –
326.16 K | 1083.75 ± 2.2 | 1722.4 ± 2.2 | –
326.41 K | 1083.59 ± 2.2 | 1721.7 ± 2.2 | –
326.66 K | 1083.43 ± 2.2 | 1721.1 ± 2.2 | –
326.9 K | 1083.28 ± 2.2 | 1720.4 ± 2.2 | –
327.16 K | 1083.12 ± 2.2 | 1719.7 ± 2.2 | –
327.4 K | 1082.97 ± 2.2 | 1719.1 ± 2.2 | –
327.66 K | 1082.81 ± 2.2 | 1718.4 ± 2.2 | –
327.9 K | 1082.65 ± 2.2 | 1717.7 ± 2.2 | –
328.15 K | 1082.49 ± 2.2 | 1717.1 ± 2.2 | –
328.41 K | 1082.34 ± 2.2 | 1716.4 ± 2.2 | –
328.66 K | 1082.18 ± 2.2 | 1715.8 ± 2.2 | –
328.9 K | 1082.03 ± 2.2 | 1715.1 ± 2.2 | –
329.16 K | 1081.87 ± 2.2 | 1714.4 ± 2.2 | –
329.4 K | 1081.71 ± 2.2 | 1713.8 ± 2.2 | –
329.65 K | 1081.55 ± 2.2 | 1713.1 ± 2.2 | –
329.9 K | 1081.4 ± 2.2 | 1712.5 ± 2.2 | –
330.16 K | 1081.24 ± 2.2 | 1711.8 ± 2.2 | –
330.41 K | 1081.08 ± 2.2 | 1711.1 ± 2.2 | –
330.66 K | 1080.92 ± 2.2 | 1710.5 ± 2.2 | –
330.91 K | 1080.77 ± 2.2 | 1709.8 ± 2.2 | –
331.16 K | 1080.61 ± 2.2 | 1709.1 ± 2.2 | –
331.41 K | 1080.45 ± 2.2 | 1708.5 ± 2.2 | –
331.66 K | 1080.29 ± 2.2 | 1707.8 ± 2.2 | –
331.91 K | 1080.13 ± 2.2 | 1707.1 ± 2.2 | –
332.16 K | 1079.97 ± 2.2 | 1706.5 ± 2.2 | –
332.41 K | 1079.82 ± 2.2 | 1705.8 ± 2.2 | –
332.66 K | 1079.66 ± 2.2 | 1705.1 ± 2.2 | –
332.91 K | 1079.5 ± 2.2 | 1704.5 ± 2.2 | –
333.16 K | 1079.34 ± 2.2 | 1703.8 ± 2.2 | –
333.41 K | 1079.19 ± 2.2 | 1703.1 ± 2.2 | –
333.66 K | 1079.03 ± 2.2 | 1702.5 ± 2.2 | –
333.91 K | 1078.87 ± 2.2 | 1701.8 ± 2.2 | –
334.16 K | 1078.71 ± 2.2 | 1701.2 ± 2.2 | –
334.41 K | 1078.55 ± 2.2 | 1700.5 ± 2.2 | –
334.66 K | 1078.39 ± 2.2 | 1699.8 ± 2.2 | –
334.91 K | 1078.23 ± 2.2 | 1699.2 ± 2.2 | –
335.16 K | 1078.08 ± 2.2 | 1698.5 ± 2.2 | –
335.41 K | 1077.92 ± 2.2 | 1697.9 ± 2.2 | –
335.66 K | 1077.76 ± 2.2 | 1697.2 ± 2.2 | –
335.91 K | 1077.6 ± 2.2 | 1696.6 ± 2.2 | –
336.16 K | 1077.44 ± 2.2 | 1696 ± 2.2 | –
336.41 K | 1077.28 ± 2.2 | 1695.3 ± 2.2 | –
336.66 K | 1077.12 ± 2.2 | 1694.7 ± 2.2 | –
336.9 K | 1076.96 ± 2.2 | 1694 ± 2.2 | –
337.16 K | 1076.8 ± 2.2 | 1693.4 ± 2.2 | –
337.4 K | 1076.63 ± 2.2 | 1692.8 ± 2.2 | –
337.66 K | 1076.47 ± 2.2 | 1692.2 ± 2.2 | –
337.9 K | 1076.32 ± 2.2 | 1691.7 ± 2.2 | –
338.15 K | 1076.16 ± 2.2 | 1691.3 ± 2.2 | –
